Literature values, collected in patent US8937081B2, “Statin bioavailability enhancement delivery composition” (PruGen IP Holdings, Inc., priority 2011, dated 2015).

Tests used:
[1] = among the marketed statins
[2] = system: hepatocytes; settings: in hepatocytes

Row | SMILES | percentage of serious adverse effects [1] | IC50 [2]
1 | COCc1c(C(C)C)nc(C(C)C)c(/C=C/[C@@H](O)C[C@@H](O)CC(=O)O)c1-c1ccc(F)cc1 [cerivastatin] | largest percentage of serious adverse effects | –
2 | CC(C)c1nc(N(C)S(C)(=O)=O)nc(-c2ccc(F)cc2)c1/C=C/[C@@H](O)C[C@@H](O)CC(=O)O [rosuvastatin] | – | low
